From ChEMBL document CHEMBL1138696, “Evans Blue and other dyes as protein tyrosine phosphatase inhibitors” (Bioorg Med Chem Lett, 2004) come the findings set out here.

Assay [1] can be described thus: Inhibition of human Leukocyte Antigen Related(LAR) protein tyrosine phosphatase D1.
The target of assay [2] is T1, Tyrosine-protein phosphatase 1 (Saccharomyces cerevisiae S288c, UniProt P25044).
T1 sequence (P25044 whole entry): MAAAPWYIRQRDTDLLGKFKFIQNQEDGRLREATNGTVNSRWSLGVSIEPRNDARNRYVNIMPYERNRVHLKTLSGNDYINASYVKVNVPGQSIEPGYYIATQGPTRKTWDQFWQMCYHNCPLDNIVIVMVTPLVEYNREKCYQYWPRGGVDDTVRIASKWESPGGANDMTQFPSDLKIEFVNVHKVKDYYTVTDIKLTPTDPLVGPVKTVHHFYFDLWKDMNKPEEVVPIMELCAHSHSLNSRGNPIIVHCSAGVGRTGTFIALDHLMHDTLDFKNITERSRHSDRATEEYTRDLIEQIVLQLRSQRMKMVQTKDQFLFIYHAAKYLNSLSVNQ
Kind of assay: Inhibitory activity against Saccharomyces cerevisiae Tyrosine phosphatase 1.

The target of assay [3] is T2, Tyrosine-protein phosphatase non-receptor type 1 (Homo sapiens, UniProt P18031).
T2 sequence (P18031 whole entry): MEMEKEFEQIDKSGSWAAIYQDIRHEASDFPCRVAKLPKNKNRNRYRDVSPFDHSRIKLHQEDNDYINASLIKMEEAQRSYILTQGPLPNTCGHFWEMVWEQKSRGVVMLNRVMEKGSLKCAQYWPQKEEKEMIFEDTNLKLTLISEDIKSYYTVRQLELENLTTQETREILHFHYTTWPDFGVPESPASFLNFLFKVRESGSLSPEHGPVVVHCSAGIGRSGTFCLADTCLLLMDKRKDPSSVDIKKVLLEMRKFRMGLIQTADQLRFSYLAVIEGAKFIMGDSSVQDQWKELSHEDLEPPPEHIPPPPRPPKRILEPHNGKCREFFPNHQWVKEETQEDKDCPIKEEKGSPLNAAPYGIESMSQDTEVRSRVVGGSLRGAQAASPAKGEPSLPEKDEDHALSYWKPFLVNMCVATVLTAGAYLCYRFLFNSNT
Kind of assay: Inhibition of human PTPase 1B.

In the case of `C/C(=C1/C=CC(=O)C(C(=O)O)=C1)c1ccc(O)c(C(=O)O)c1`, the IC50 was greater than 1000 µM in assay [1], 30 µM in assay [2] and 5.2 µM in assay [3].

Take `O=C(O)c1cc(N=Nc2ccc([N+](=O)[O-])cc2)ccc1O`: the IC50 in assay [1] was greater than 1000 µM; in assay [2], 630 µM; in assay [3], 210 µM.

Consider `Cc1[nH]n(-c2ccccc2)c(=O)c1N=Nc1c(O)cc(S(=O)(=O)O)c2ccccc12`, for which the values for the IC50 in assay [1], in assay [2] and in assay [3] were 660 µM, 140 µM and 150 µM, respectively.

Turning to `O=C1c2ccccc2C(=O)c2c1cc(S(=O)(=O)O)c(O)c2O` [Alizarin Red S], the results for the IC50 in assay [1], in assay [2] and in assay [3] were 82 µM, 48 µM and 40 µM, respectively.

`Cc1c(C(=O)O)c(O)cc2c1C(=O)c1c(O)c([C@H]3O[C@H](CO)[C@@H](O)[C@H](O)[C@H]3O)c(O)c(O)c1C2=O` [CARMINE]: the values for the IC50 in assay [1], in assay [2] and in assay [3] were greater than 1000 µM, 15 µM and 26 µM, respectively.

Take `O=S(=O)(O)c1cc(O)c2c(O)cc(S(=O)(=O)O)cc2c1` [CHROMOTROPATE]: the IC50 in assay [1] was 570 µM; in assay [2] it was 6.5 µM; in assay [3], 9.7 µM.

Consider `O=S(=O)(O)c1cc(S(=O)(=O)O)c2c(N=Nc3c(O)cc(S(=O)(=O)O)c4ccccc34)c(O)c(S(=O)(=O)O)cc2c1` [E126], for which the IC50 was found to be 110 µM in assay [2] and 460 µM in assay [3].

Regarding `COc1cc(S(=O)(=O)O)c(C)cc1N=Nc1c(O)ccc2cc(S(=O)(=O)O)ccc12` [E129], the half-inhibitory concentration (IC50) in assay [1] turned out to be 90 µM; in assay [2], 410 µM; in assay [3], 33 µM.

In the case of `Cc1cc(-c2ccc(/N=N/c3ccc4c(S(=O)(=O)O)cc(S(=O)(=O)O)c(N)c4c3O)c(C)c2)ccc1/N=N/c1ccc2c(S(=O)(=O)O)cc(S(=O)(=O)O)c(N)c2c1O` [EVANS BLUE], the IC50 in assay [1] is 61 µM; in assay [2], 1.2 µM; in assay [3], 1.3 µM.

As to `O=C1OC2(c3ccc(O)cc3Oc3cc(O)ccc32)c2ccccc21` [FLUORESCEIN], the concentration for half-maximal inhibition (IC50) was greater than 1000 µM in assay [1], 850 µM in assay [2] and 600 µM in assay [3].

As to `O=C(O)c1cc2ccccc2c(Cc2c(O)c(C(=O)O)cc3ccccc23)c1O` [PAMOIC ACID], the concentration for half-maximal inhibition (IC50) was greater than 1000 µM in assay [1], greater than 1000 µM in assay [2] and 310 µM in assay [3].

Turning to `CC(C)=CC[C@@H](O)C1=CC(=O)c2c(O)ccc(O)c2C1=O` [SHIKONIN], the results for the half-inhibitory concentration (IC50) in assay [1] and in assay [3] were greater than 1000 µM and 25 µM, respectively.

Turning to `Cc1cc(-c2ccc(/N=N/c3c(S(=O)(=O)O)cc4cc(S(=O)(=O)O)cc(N)c4c3O)c(C)c2)ccc1/N=N/c1c(S(=O)(=O)O)cc2cc(S(=O)(=O)O)cc(N)c2c1O` [TRYPAN BLUE], the values for the IC50 in assay [1], in assay [2] and in assay [3] were 170 µM, 7.4 µM and 3.9 µM, respectively.
